From patent US9365576B2, “Pyrrolopyrrolidinone compounds” (Novartis AG, priority 2012, dated 2016)

What follows are compounds tested against human MDM2 protein (amino acids 2-188) (Homo sapiens (Human), UniProt Q00987) (assay: TR-FRET assay, p53-MDM2 Assay 2 (modified)). Details: TR-FRET; 0.1 nM MDM2, 0.1 nM Europium labeled streptavidin, Tecan genios Pro reader; read-out: IC50 p53-MDM2 Assay 2.
Chain of human MDM2 protein (amino acids 2-188) (Q00987 2-188): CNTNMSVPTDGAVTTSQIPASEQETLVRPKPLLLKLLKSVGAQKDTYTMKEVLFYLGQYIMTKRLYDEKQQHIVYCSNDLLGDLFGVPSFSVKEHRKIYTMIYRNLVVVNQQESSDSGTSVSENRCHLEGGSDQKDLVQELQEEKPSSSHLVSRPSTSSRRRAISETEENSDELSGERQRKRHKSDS
Type: binding
Procedure, shortened: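 IC50 values were curve-fitted from the time-resolved 665/620 nm emission ratio after 340 nm excitation. The assay combined 0.625 nM europium-streptavidin donor with 1.25 nM C-terminally biotinylated MDM2 2–188 (15 min, RT), followed by 15 min with 10 nM Cy5-labeled p53 18–26 acceptor peptide.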
For `COc1ncc(-c2cc3c(n2C(C)C)[C@@H](c2ccc(C#N)cc2)N(c2cc(Cl)cn(C)c2=O)C3=O)c(OC)n1` [Example 216, 4-[(R)-5-(5-Chloro-1-methyl-2-oxo-1,2-dihydro-pyridin-3-yl)-2-(2,4-dimethoxy-pyrimidin-5-yl)-1-isopropyl-4-oxo-1,4,5,6-tetrahydro-pyrrolo[3,4-b]pyrrol-6-yl]-benzonitrile], the IC50 was 883 nM.
`[2H]C([2H])([2H])Oc1ncc(-c2cc3c(n2C(C)C)[C@H](c2ccc(Cl)cc2)N(c2cc(Cl)c(=O)n(C)c2)C3=O)c(OC([2H])([2H])[2H])n1` [Example 218, (S)-5-(5-Chloro-1-methyl-6-oxo-1,6-dihydro-pyridin-3-yl)-6-(4-chloro-phenyl)-2-(2,4-d6-dimethoxy-pyrimidin-5-yl)-1-isopropyl-5,6-dihydro-1H-pyrrolo[3,4-b]pyrrol-4-one] gave an IC50 of 0.106 nM.
`[2H]C([2H])([2H])Oc1ncc(-c2cc3c(n2C(C)C)[C@@H](c2ccc(Cl)cc2)N(c2cc(Cl)c(=O)n(C)c2)C3=O)c(OC([2H])([2H])[2H])n1` [Example 219, (R)-5-(5-Chloro-1-methyl-6-oxo-1,6-dihydro-pyridin-3-yl)-6-(4-chloro-phenyl)-2-(2,4-d6-dimethoxy-pyrimidin-5-yl)-1-isopropyl-5,6-dihydro-1H-pyrrolo[3,4-b]pyrrol-4-one] showed an IC50 of 28.3 nM.
Work on `CCOC(=O)c1c2c(n(C(C)C)c1-c1cnc(OC)nc1OC)C(c1ccc(Cl)cc1)N(c1cc(Cl)c(=O)n(C)c1)C2=O` (centres unmarked) [Example 220, 5-(5-Chloro-1-methyl-6-oxo-1,6-dihydro-pyridin-3-yl)-6-(4-chloro-phenyl)-2-(2,4-dimethoxy-pyrimidin-5-yl)-1-isopropyl-4-oxo-1,4,5,6-tetrahydro-pyrrolo[3,4-b]pyrrole-3-carboxylic acid ethyl ester] yielded an IC50 of 0.134 nM.
Work on `COc1ncc(-c2c(C(=O)O)c3c(n2C(C)C)C(c2ccc(Cl)cc2)N(c2cc(Cl)c(=O)n(C)c2)C3=O)c(OC)n1` (centres unmarked) [Example 221, 5-(5-Chloro-1-methyl-6-oxo-1,6-dihydro-pyridin-3-yl)-6-(4-chloro-phenyl)-2-(2,4-dimethoxy-pyrimidin-5-yl)-1-isopropyl-4-oxo-1,4,5,6-tetrahydro-pyrrolo[3,4-b]pyrrole-3-carboxylic acid] yielded an IC50 of 0.14 nM.
Work on `COC[C@@H](C)n1c(-c2cnc(OC)nc2OC)cc2c1C(c1ccc(C#N)cc1)N(c1ccc(F)c(Cl)c1)C2=O` (stereo partly drawn) [Example 222, 4-[(R,S)-5-(3-Chloro-4-fluoro-phenyl)-2-(2,4-dimethoxy-pyrimidin-5-yl)-1-((R)-2-methoxy-1-methyl-ethyl)-4-oxo-1,4,5,6-tetrahydro-pyrrolo[3,4-b]pyrrol-6-yl]-benzonitrile] yielded an IC50 of 0.303 nM.
Work on `COC[C@@H](C)n1c(-c2cnc(N)nc2OC)cc2c1C(c1ccc(C#N)cc1)N(c1ccc(F)c(Cl)c1)C2=O` (some centres unmarked) [Example 223] yielded an IC50 of 0.631 nM.
`COC[C@@H](C)n1c(-c2cnc(N)nc2OC)cc2c1C(c1ccc(Cl)cc1)N(c1ccc(F)c(Cl)c1)C2=O` (stereo partly drawn) [Example 224, (R,S)-2-(2-Amino-4-methoxy-pyrimidin-5-yl)-5-(3-chloro-4-fluoro-phenyl)-6-(4-chloro-phenyl)-1-((R)-2-methoxy-1-methyl-ethyl)-5,6-dihydro-1H-pyrrolo[3,4-b]pyrrol-4-one] gave an IC50 of 0.362 nM.
`COC[C@@H](C)n1c(-c2cnc(OC)nc2OC)cc2c1C(c1ccc(Cl)cc1)N(c1cc(Cl)c(=O)n(C)c1)C2=O` (some centres unmarked) [Example 225] showed an IC50 of 0.277 nM.
For `COc1nc(N(C)C)ncc1-c1c(C(=O)O)c2c(n1C(C)C)C(c1ccc(Cl)cc1)N(c1cc(Cl)c(=O)n(C)c1)C2=O` (centres unmarked) [Example 226, 5-(5-Chloro-1-methyl-6-oxo-1,6-dihydro-pyridin-3-yl)-6-(4-chloro-phenyl)-2-(2-dimethylamino-4-methoxy-pyrimidin-5-yl)-1-isopropyl-4-oxo-1,4,5,6-tetrahydro-pyrrolo[3,4-b]pyrrole-3-carboxylic acid], the IC50 was 0.132 nM.
`COc1nc(N(C)C)ncc1-c1cc2c(n1C(C)C)[C@H](c1ccc(Cl)c(F)c1)N(c1cc(Cl)c[nH]c1=O)C2=O` [Example 227, (S)-6-(4-Chloro-3-fluoro-phenyl)-5-(5-chloro-2-oxo-1,2-dihydro-pyridin-3-yl)-2-(2-dimethylamino-4-methoxy-pyrimidin-5-yl)-1-isopropyl-5,6-dihydro-1H-pyrrolo[3,4-b]pyrrol-4-one] was tested, and the IC50 was 0.071 nM.
With `COc1nc(N(C)C)ncc1-c1cc2c(n1C(C)C)[C@@H](c1ccc(Cl)c(F)c1)N(c1cc(Cl)c[nH]c1=O)C2=O` [Example 228, (R)-6-(4-Chloro-3-fluoro-phenyl)-5-(5-chloro-2-oxo-1,2-dihydro-pyridin-3-yl)-2-(2-dimethylamino-4-methoxy-pyrimidin-5-yl)-1-isopropyl-5,6-dihydro-1H-pyrrolo[3,4-b]pyrrol-4-one] the IC50 was 48.7 nM.
`COC[C@@H](C)n1c(-c2cnc(N)nc2OC)cc2c1[C@H](c1ccc(Cl)cc1)N(c1ccc(F)c(Cl)c1)C2=O` [Example 229] was tested, and the IC50 was 0.078 nM.
With `COC[C@@H](C)n1c(-c2cnc(N)nc2OC)cc2c1[C@@H](c1ccc(Cl)cc1)N(c1ccc(F)c(Cl)c1)C2=O` [Example 230, (R)-2-(2-Amino-4-methoxy-pyrimidin-5-yl)-5-(3-chloro-4-fluoro-phenyl)-6-(4-chloro-phenyl)-1-((R)-2-methoxy-1-methyl-ethyl)-5,6-dihydro-1H-pyrrolo[3,4-b]pyrrol-4-one] the IC50 was 281 nM.
In the case of `COc1nc(N(C)C)ncc1-c1cc2c(n1C(C)C)C(c1ccc(C#N)cc1)N(c1c(F)c(C)nn1C)C2=O` (centres unmarked) [Example 231, 4-(2-(2-(Dimethylamino)-4-methoxypyrimidin-5-yl)-5-(4-fluoro-1,3-dimethyl-1H-pyrazol-5-yl)-1-isopropyl-4-oxo-1,4,5,6-tetrahydropyrrolo[3,4-b]ppyrrol-6-yl)benzonitrile], the IC50 is reported as 0.224 nM.
For `COc1nc(N(C)C)ncc1-c1cc2c(n1C(C)C)[C@H](c1ccc(C#N)cc1)N(c1cc(Cl)c(=O)n(C)c1)C2=O` [Example 232, (S)-4-(5-(5-Chloro-1-methyl-6-oxo-1,6-dihydropyridin-3-yl)-2-(2-(dimethylamino)-4-methoxypyrimidin-5-yl)-1-isopropyl-4-oxo-1,4,5,6-tetrahydropyrrolo[3,4-b]pyrrol-6-yl)benzonitrile], the IC50 was 0.069 nM.
Compound `COc1nc(N(C)C)ncc1-c1cc2c(n1C(C)C)[C@@H](c1ccc(C#N)cc1)N(c1cc(Cl)c(=O)n(C)c1)C2=O` [Example 233, (R)-4-(5-(5-Chloro-1-methyl-6-oxo-1,6-dihydropyridin-3-yl)-2-(2-(dimethylamino)-4-methoxypyrimidin-5-yl)-1-isopropyl-4-oxo-1,4,5,6-tetrahydropyrrolo[3,4-b]pyrrol-6-yl)benzonitrile] has an IC50 of 60.2 nM.
In the case of `COc1nc(N(C)C)ncc1-c1cc2c(n1C(C)C)C(c1ccc(Cl)cn1)N(c1cccc(Cl)c1F)C2=O` (centres unmarked) [Example 234, 5-(3-Chloro-2-fluorophenyl)-6-(5-chloropyridin-2-yl)-2-(2-(dimethylamino)-4-methoxypyrimidin-5-yl)-1-isopropyl-5,6-dihydropyrrolo[3,4-b]pyrrol-4(1H)-one], the IC50 is reported as 0.657 nM.
For `COc1ncc(-c2cc3c(n2C(C)C)C(c2ccc(Cl)cn2)N(c2cc(Cl)ccc2C)C3=O)c(OC)n1` (centres unmarked) [Example 235, 5-(5-Chloro-2-methylphenyl)-6-(5-chloropyridin-2-yl)-2-(2,4-dimethoxypyrimidin-5-yl)-1-isopropyl-1-5,6-dihydropyrrolo[3,4-b]pyrrol-4(1H)-one], the IC50 was 7.16 nM.
With `COc1ncncc1-c1cc2c(n1C(C)C)C(c1ccc(C#N)cc1)N(c1cc(Cl)c(=O)n(C)c1)C2=O` (centres unmarked) [Example 236, 4-(5-(5-Chloro-1-methyl-6-oxo-1,6-dihydropyridin-3-yl)-1-isopropyl-2-(4-methoxypyrimidin-5-yl)-4-oxo-1,4,5,6-tetrahydropyrrolo[3,4-b]pyrrol-6-yl)benzonitrile] the IC50 was 2.98 nM.
Compound `COc1ncc(-c2cc3c(n2C(C)C)[C@H](c2ccc(C#N)c(F)c2)N(c2cc(Cl)c(=O)n(C)c2)C3=O)c(OC)n1` [Example 237, (S)-4-(5-(5-Chloro-1-methyl-6-oxo-1,6-dihydropyridin-3-yl)-2-(2,4-dimethoxypyrimidin-5-yl)-1-isopropyl-4-oxo-1,4,5,6-tetrahydropyrrolo[3,4-b]pyrrol-6-yl)-2-fluorobenzonitrile] has an IC50 of 0.107 nM.
`COc1ncc(-c2cc3c(n2C(C)C)[C@@H](c2ccc(C#N)c(F)c2)N(c2cc(Cl)c(=O)n(C)c2)C3=O)c(OC)n1` [Example 238, (R)-4-(5-(5-Chloro-1-methyl-6-oxo-1,6-dihydropyridin-3-yl)-2-(2,4-dimethoxypyrimidin-5-yl)-1-isopropyl-4-oxo-1,4,5,6-tetrahydropyrrolo[3,4-b]pyrrol-6-yl)-2-fluorobenzonitrile] was tested, and the IC50 was 126 nM.
Compound `COc1ncc(-c2cc3c(n2C(C)C)C(c2ccc(Cl)cc2)N(c2cc(C)cn(C)c2=O)C3=O)c(OC)n1` (centres unmarked) [Example 239, 6-(4-Chlorophenyl-1)-2-(2,4-dimethoxypyrimidin-5-yl)-5-(1,5-dimethyl-2-oxo-1,2-dihydropyridin-3-yl)-1-isopropyl-5,6-dihydropyrrolo[3,4-b]pyrrol-4(1H)-one] has an IC50 of 1.16 nM.
